Test results taken from patent publication EP1228052B1, “1-CYCLIC AMINO-ALKYLCYCLOHEXANE COMPOUNDS, PHARMACEUTICAL COMPOSITIONS THEREOF, AND THEIR USE AS ANTICONVULSANTS” (Merz Pharma GmbH & Co. KGaA, priority 1999, dated 2001).
pIC50, pKi: −log10 of the molar value.

Assays:
NMDA-induced currents = NMDA-induced currents in patch clamp experiments; format: cell-based; conditions: at least 3 concentrations, at least 5 cells per concentration
Description: (§1) Effect of MRZ 2/705 on [^3H]-(+)-MK-801 binding, NMDA-induced currents in patch clamp experiments, and glutamate toxicity in cultured cortical neurones. […] IC50s (±SEM) in patch clamp and glutamate toxicity experiments were determined from data from at least 3 concentrations producing between 15 and 85% inhibition and at least 5 cells/well per concentration.

[1] = test system: cultured cortical neurones; assay: Glutamate toxicity in cultured cortical neurones; format: cell-based; conditions: Cortical neurone, read-out: Glut Tox IC50
Description: as §1

rotarod failure (Rot.) = assay: Rotarod failure (for therapeutic index); format: in vivo; conditions: therapeutic index: ED50 for rotarod failure divided by ED50 for MES-induced convulsions
Description: (§2) Effect of MRZ 2/705 on convulsions induced by maximal electroshock (MES). […] The therapeutic index (TI) was also calculated as the ED50 for inhibition of traction reflex (Tract.) impairment or rotarod failure (Rot.) divided by the ED50 for MES-induced seizure-induced convulsions.

[2] = Adverse effects in kindled rats (sedation, ataxia, rotarod test); format: in vivo, Female Wistar rats
Description: The substance MRZ 2/705 was dissolved in distilled water and administered i.p. Thereby applicated volume was 3 ml/kg body weight. dosages used in the experiments were 5, 10, and 20 mg/kg.
Animals were allowed to adapt to the laboratory environment, then body temperature was measured and animals were put into open cages for constant observation. 15 and 30 minutes following drug or vehicle administration behavioral alterations and body temperature were determined. Adverse effects were scored during observation in open cages and in an open field. In addition, rats were subjected to the rotarod test (polypropylene, foam-coated rod, 5cm in diameter, 8rpm). Animals were considered to have failed this test, when they fell from the rod in each of three consecutive 1-min. attempts.

amygdala kindled rats = assay: Amygdala kindling model in fully kindled rats; format: in vivo, Female Wistar rats
Description: The substance MRZ 2/705 was tested in the amygdala kindling model in rats. In this model chronically implanted animals with stimulation and recording electrodes in the amygdala were rendered more susceptible to seizures by repeated initially subconvulsive electrical stimulation (Goddard et al., 1969, Sato el. al, 1990). Once enhanced sensitivity, characterized by generalized motor seizures, has developed, the animal is said to be fully kindled. For substance screening procedures we determine the individual threshold current that induces afterdischarges at the stimulation site.
Female Wistar rats were purchased at a body weight of 200-220g (Harlan Windelmann Versuchstierzucht, Borchen, Germany) and were then kept under controlled environmental conditions (24-25°C, 50-60% humidity, 12h light / dark cycle) with free access to standard laboratory chow (Altromin 1324 standard diet) and tap water. All experiments were performed within the same day time in the morning to minimize possible effects of circadian variation. […] These animals were previously kindled and used to test other compounds. The period between the previous and current studies was long enough (at least one month) so that it was ample time for a complete washout from the previously tested drug.
For implantation of kindling electrodes, rats were anaesthetized with chloral hydrate (360 mg/kg, i/p.), the skull surface was exposed, and a bipolar electrode was implanted into the right hemisphere aimed at the basolateral amygdala using the following sterotaxic coordinates according to the atlas of Paximos and Watson (1986): 2.2 mm caudal, 4.8 mm lateral, 8.5 mm ventral (all respective to bregma). The electrodes consisted of two twisted Teflon-coated stainless steel wires (250 µm diameter) separated by 0.5 mm at the tip. A screw, which served as grounding electrode, was positioned over the left parietal cortex. Bipolar and ground electrodes were connected to plugs, and the electrode assembly and anchor screws were held in place with dental carylic cement applied to the exposed skull surface. After surgery, the rats were treated with antibiotics for 1 week to prevent infection.
Following a post-operative recovery period of two weeks, constant current stimulations (500µA, 1 msec, monophasic square-wave pulses, 50 Hz for 1 s) were delivered to the amygdala once daily (five times per week) until at least 10 sequential fully kindled stage-5 seizures were elicited. Seizure severity (SS) was scored according to Racine (1972): 1 immobility, eye closure, ear twitching, twitching of vibrissae, sniffing, facial clonus; 2 head nodding associated with more severe facial clonus; 3 clonus of one forelimb; 3.5 bilateral clonus without rearing; 4 bilateral clonus accompanied by rearing; 4.5 generalized clonic seizures without rearing and falling (e.g. because of direct loss of balance); 5 rearing and falling accompanied by generalized clonic seizures. In these fully kindled rats afterdischarge threshold (ADT) was determined by administering a series of stimulations at intervals of 1 min. increasing in steps of about 20% of the previously applied current. The afterdischarge threshold was defined as the lowest current intensity producing afterdischarge with a duration of at least 5 s.
In all experiments seizure duration and afterdischarge duration were recorded in addition to seizure severity and afterdischarge threshold. Seizure duration 1 (SD1) was the time period of limbic and/or motor seizures. Limbic seizure activity which sometimes occurred after termination of secondarily generalized seizures was not included in seizure duration. Seizure duration 2 (SD2) was the time period from stimulation until the end of postictal depression phase.
Afterdischarge duration 1 (ADD1) was defined as the period of high amplitude spiking (at least 1 Hz frequency and twice the prestimulation amplitude) in the electroencephalogram (EEG) of the BLA electrode, including the time of stimulation. […]

[3] = test system: traction reflex (Tract.) impairment; assay: Traction reflex impairment (for therapeutic index); format: in vivo; conditions: therapeutic index: ED50 for traction reflex impairment divided by ED50 for MES-induced convulsions
Description: as §2

[^3H]-(+)-MK-801 binding = [3H]-(+)-MK-801 binding; conditions: read-out: MK-801 Ki; means of 3-5 experiments; Cheng-Prusoff, Kd for MK-801 of […]
Description: as §1

[4] = test system: convulsions induced by maximal electroshock (MES); assay: Convulsions induced by maximal electroshock (MES); format: in vivo; conditions: ip; 95% confidence limits in the next column
Description: as §2

[5] = 20 mg/kg i.p., in a significant manner

For `CC1(C)CC(C)(C)CC(C)(N2CCCC2)C1.Cl` [MRZ 2/705, N-(1,3,3,5,5-Pentamethylcyclohexyl) pyrrolidine hydrochloride], the pIC50 (NMDA-induced currents) was 4.60, the pIC50 [1] was 4.91 and the “TI Rot.” value (rotarod failure (Rot.)) was 5.4. For the same compound, the rotarod test ([2]; 5, 10, 20 mg/kg i.p., 8 rpm, three consecutive 1-min attempts) was “no failure to pass the rotarod test was observed”, the ataxia ([2]; 10 and 20 mg/kg i.p.) was “Slight ataxia” and the sedation ([2]; all three dosages (5, 10, 20 mg/kg i.p.)) was “minor signs of sedation”. For the same compound, the “Min I.ct-hality” value (Minimal lethality i.p.) was greater than 50 mg/kg, the “average increase in afterdischarge threshold above control threshold” value (from here on “average increase”) (amygdala kindled rats; 5 mg/kg i.p.) was 36% and the “average increase” value (amygdala kindled rats; 10 mg/kg i.p., significant) was 50%. The duration of afterdischarges (amygdala kindled rats; [5]) was “reduced”, the “duration of motor seizures” value (amygdala kindled rats; [5]) was “reduced” and the seizure severity (amygdala kindled rats; [5]) was “reduced”. For the same compound, the “average increase” value (amygdala kindled rats; 20 mg/kg i.p., significant) was 95%, the “seizure parameters (seizure severity, duration of motor seizures, duration of afterdischarges)” value (amygdala kindled rats; lower dosages (5 and 10 mg/kg i.p.)) was “remained unchanged or were only influenced slightly” and the “TI Tract” value [3] was 3.9. The pKi ([^3H]-(+)-MK-801 binding) was 5.15 and the ED50 [4] was 9.55 mg/kg.
